pIC50: −log10 of the molar value.
Key:
HT-29 tumor cells = assay: Anti-proliferative activity, SRB assay; assay type: cell-based, human; settings: Homo sapiens, HT-29, 72 h, 72 hours exposure, read-out: CELLULAR IC50 HT-29
Procedure, shortened: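 Cells at 3,000-15,000/well, plated 24 h before compound, exposed to a concentration range for 72 hours. Proliferation measured by SRB staining after cold TCA fixation, absorbance at OD570; IC50 estimated from % inhibition versus DMSO-treated cells.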

[1] = biological target: C-Raf Raf-1 (truncated), active (Homo sapiens, UniProt P04049, Y340D/Y341D); assay: C-Raf kinase inhibition (MAPH assay / IMAP assay); settings: read-out: Biochemical IC50 C-Raf
Sequence of C-Raf Raf-1 (truncated), active (P04049 306-648 Y340D/Y341D): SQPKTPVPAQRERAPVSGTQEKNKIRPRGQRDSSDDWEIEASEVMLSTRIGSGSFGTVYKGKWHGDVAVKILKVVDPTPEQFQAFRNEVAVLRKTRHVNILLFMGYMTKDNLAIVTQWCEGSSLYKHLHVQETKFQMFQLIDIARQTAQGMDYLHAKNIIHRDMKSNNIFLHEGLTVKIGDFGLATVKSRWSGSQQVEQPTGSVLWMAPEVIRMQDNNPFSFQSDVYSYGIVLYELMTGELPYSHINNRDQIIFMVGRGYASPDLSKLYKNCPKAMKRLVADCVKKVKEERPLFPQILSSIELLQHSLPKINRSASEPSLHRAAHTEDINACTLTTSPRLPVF
Procedure, shortened: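 Truncated active human C-Raf (Y340D/Y341D), room temperature, top inhibitor concentration 10 μM in a dilution series for IC50. MAPH: 57.8 μM myelin basic protein with [γ-33P]ATP, kinase at 10% ATP turnover, 1 h, filter-bound radioactivity. IMAP: 400 nM fluorescent peptide, 20 mM Hepes pH 7.5 with 10 mM MnCl2, kinase at 50% turnover, fluorescence polarization.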

B-Raf delta1-415 = B-Raf delta1-415 (Homo sapiens, UniProt P15056); assay: B-Raf kinase inhibition (MAPH filter plate, 33P-ATP, MEK1 substrate); settings: read-out: Biochemical IC50 B-Raf
Sequence of B-Raf delta1-415 (P15056 416-766): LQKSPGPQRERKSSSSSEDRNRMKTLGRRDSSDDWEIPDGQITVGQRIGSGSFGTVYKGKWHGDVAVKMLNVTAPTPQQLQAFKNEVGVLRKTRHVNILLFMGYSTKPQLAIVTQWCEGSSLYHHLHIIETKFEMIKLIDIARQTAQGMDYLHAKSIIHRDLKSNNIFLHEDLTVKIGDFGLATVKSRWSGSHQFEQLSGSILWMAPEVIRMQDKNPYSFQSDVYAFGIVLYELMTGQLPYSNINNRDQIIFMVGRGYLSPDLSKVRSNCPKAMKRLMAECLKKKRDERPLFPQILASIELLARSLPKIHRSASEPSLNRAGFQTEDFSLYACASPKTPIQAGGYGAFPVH
Procedure, shortened: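 Radiometric filter-binding assay with B-Raf delta1-415 at a level giving 50% turnover, MEK1 substrate and 33P-ATP (12.5 μCi/ml) in 20 mM Mops pH 7.0 with Mg/Mn, 1 h at room temperature. Inhibitor dilution series from 10 μM; EDTA-stopped reactions captured on phosphocellulose filters, counted by scintillation for IC50.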

SMILES | pIC50 (HT-29 tumor cells) | pIC50 [1] | pIC50 (B-Raf delta1-415)
COc1cccc(Nc2ncc3cc(-c4c(Cl)cccc4Cl)c(=O)n(OCCCCN)c3n2)c1 [Compound 41, 8-(4-Aminobutoxy)-6-(2,6-dichlorophenyl)-2-(3-methoxyphenylamino)-pyrido[2,3-d]pyrimidin-7-one] | > 6.00 | > 7.00 | > 6.30
CC(C)(C)On1c(=O)c(-c2ccccc2Cl)cc2cnc(Nc3ccccc3)nc21 [Compound 63, 6-(2-Chlorophenyl)-8-(1,1-dimethyl)ethyloxy-2-phenylamino-pyrido[2,3-d]pyrimidin-7-one] | < 5.00 | > 5.00 | > 5.00
COc1cccc(Nc2ncc3cc(-c4c(Cl)cccc4Cl)c(=O)n(OC)c3n2)c1 [Compound 3, 6-(2,6-Dichlorophenyl)-8-methoxy-2-(3-methoxyphenylamino)-pyrido[2,3-d]pyrimidin-7-one] | > 6.00 | > 7.00 | > 7.00
NCCCCOn1c(=O)c(-c2c(Cl)cccc2Cl)cc2cnc(Nc3ccccc3)nc21 [Compound 34, 8-(4-Aminobutoxy)-6-(2,6-dichlorophenyl)-2-phenylamino-pyrido[2,3-d]pyrimidin-7-one] | > 6.00 | > 7.00 | > 6.00
COn1c(=O)c(-c2c(Cl)cccc2Cl)cc2cnc(Nc3cc(CO)ccc3F)nc21 [Compound 27, 6-(2,6-Dichlorophenyl)-2-(2-fluoro-5-(hydroxymethyl)phenylamino)-8-methoxy-pyrido[2,3-d]pyrimidin-7-one] | > 5.00 | > 7.00 | < 6.00
COn1c(=O)c(-c2cccc(NC(C)=O)c2)cc2cnc(Nc3ccccc3)nc21 [Compound 62] | > 5.00 | > 7.00 | > 5.00
COc1ccc(OC)c(-c2cc3cnc(Nc4ccccc4)nc3n(OC)c2=O)c1 [Compound 60] | > 5.00 | > 6.30 | > 5.00
COn1c(=O)c(-c2ccccc2Cl)cc2cnc(Nc3ccccc3)nc21 [Compound 22, 6-(2-Chlorophenyl)-8-methoxy-2-phenylamino-pyrido[2,3-d]pyrimidin-7-one] | > 5.00 | > 7.00 | > 6.30
COn1c(=O)c(-c2c(Cl)cccc2Cl)cc2cnc(Nc3cccc(CO)c3)nc21 [Compound 1, 6-(2,6-Dichlorophenyl)-2-(3-hydroxymethylphenylamino)-8-methoxy-pyrido[2,3-d]pyrimidin-7-one] | > 6.00 | > 7.00 | > 7.00
COn1c(=O)c(-c2c(F)cccc2Cl)cc2cnc(Nc3ccc(OCCN(C)C)cc3)nc21 [Compound 8, 6-(2-Chloro-6-fluorophenyl)-8-methoxy-2-(4-(2-dimethylaminoethoxy)-phenylamino)-pyrido[2,3-d]pyrimidin-7-one] | > 6.00 | > 7.00 | > 7.00
COn1c(=O)c(-c2ccccc2Cl)cc2cnc(Nc3cccc(S(N)(=O)=O)c3)nc21 [Compound 6, 6-(2-Chlorophenyl)-8-methoxy-2-(3-sulfamoylphenylamino)-pyrido[2,3-d]pyrimidin-7-one] | > 6.00 | > 7.00 | > 6.30
COCCOn1c(=O)c(-c2c(Cl)cccc2Cl)cc2cnc(Nc3cccc(OC)c3)nc21 [Compound 68, 6-(2,6-Dichlorophenyl)-8-(2-methoxyethyl)oxy-2-(3-methoxyphenyl)amino-pyrido[2,3-d]pyrimidin-7-one] | > 6.00 | > 7.00 | > 6.30
NCCCCCOn1c(=O)c(-c2c(Cl)cccc2Cl)cc2cnc(Nc3ccccc3)nc21 [Compound 56, 8-(5-Aminopentyl)oxy-6-(2,6-dichlorophenyl)-2-phenylamino-pyrido[2,3-d]pyrimidin-7-one] | > 6.00 | > 7.00 | > 6.30
COc1ccccc1-c1cc2cnc(Nc3ccc(OCCN(C)C)cc3)nc2n(OC)c1=O [Compound 50, 2-(4-(2-Dimethylaminoethoxy)-6-(2-methoxyphenyl)-phenylamino)-8-methoxy-pyrido[2,3-d]pyrimidin-7-one] | > 5.00 | > 6.00 | < 6.00
COn1c(=O)c(-c2ccccc2Cl)cc2cnc(Nc3cccc(CO)c3)nc21 [Compound 5, 6-(2-Chlorophenyl)-8-methoxy-2-(3-hydroxymethylphenylamino)-pyrido[2,3-d]pyrimidin-7-one] | > 6.00 | > 7.00 | > 6.30
COn1c(=O)c(-c2c(Cl)cccc2Cl)cc2cnc(N)nc21 [Compound 46, 2-Amino-6-(2,6-dichlorophenyl)-8-methoxy-pyrido[2,3-d]pyrimidin-7-one] | > 5.00 | > 7.00 | > 6.30
COn1c(=O)c(-c2ccccc2)cc2cnc(Nc3cccc(CO)c3)nc21 [Compound 43, 2-(3-Hydroxymethylphenylamino)-8-methoxy-6-phenyl-pyrido[2,3-d]pyrimidin-7-one] | > 5.00 | > 7.00 | > 5.30
O=c1c(-c2ccccc2Cl)cc2cnc(Nc3ccccc3)nc2n1OCC1CC1 [Compound 49, 6-(2-Chlorophenyl)-8-cyclopropylmethoxy-2-phenylamino-pyrido[2,3-d]pyrimidin-7-one] | > 5.00 | > 7.00 | < 6.00
COCCNc1ncc2cc(-c3cc(NC(=O)c4ccccc4)ccc3Cl)c(=O)n(OC)c2n1 [Compound 33] | > 5.00 | > 7.00 | > 6.30
COn1c(=O)c(-c2cc(NC(=O)c3ccc(Cl)cc3)ccc2Cl)cc2cnc(Nc3ccccc3)nc21 [Compound 37] | > 5.00 | > 7.00 | < 6.00
CN1CCN(c2ccc(Nc3ncc4cc(-c5c(F)cccc5Cl)c(=O)n(OCC5CC5)c4n3)cc2)CC1 [Compound 52, 6-(2-Chloro-6-fluorophenyl)-8-cyclopropylmethoxy-2-(4-(4-methylpiperazino)-phenylamino)-pyrido[2,3-d]pyrimidin-7-one] | > 6.00 | > 7.00 | > 7.00
COn1c(=O)c(-c2c(Cl)cccc2Cl)cc2cnc(Nc3cccc(CN4CCCC4)c3)nc21 [Compound 21, 6-(2,6-Dichlorophenyl)-8-methoxy-2-(3-(pyrrolidin-1-yl)methylphenylamino)-pyrido[2,3-d]pyrimidin-7-one] | > 6.00 | > 7.00 | > 6.30
COCCOn1c(=O)c(-c2ccccc2Cl)cc2cnc(Nc3ccccc3)nc21 [Compound 20] | > 6.00 | > 7.00 | > 6.30
NCCCCOn1c(=O)c(-c2c(Cl)cccc2Cl)cc2cnc(Nc3cccc(S(N)(=O)=O)c3)nc21 [Compound 40, 8-(4-Aminobutoxy)-6-(2,6-dichlorophenyl)-2-(3-sulfamoylphenylamino)-pyrido[2,3-d]pyrimidin-7-one] | < 5.00 | > 7.00 | > 7.00
COc1ccc(OC)c(-c2cc3cnc(Nc4cccc(CO)c4)nc3n(OC)c2=O)c1 [Compound 44, 6-(2,5-Dimethoxyphenyl)-2-(3-hydroxymethylphenylamino)-8-methoxy-pyrido[2,3-d]pyrimidin-7-one] | < 5.00 | > 7.00 | > 5.30

Source: patent US8518958B2, “Pyrido [2,3-D] pyrimidines and their use as kinase inhibitors” (Forma Therapeutics, Inc., priority 2006, dated 2013)
